# Tests used:
# [1] = test system: IGROV1-R10 chemoresistant ovarian cancer cells; assay: Real-time cellular activity by impedancemetry (xCELLigence); format: cell-based; settings: IGROV1-R10, 25 μM Pyridoclax + 5 μM ABT-737
# Experimental: (§1) FIG. 4 represents the effect of the association of Pyridoclax with ABT-737 on chemoresistant ovarian cancer cells IGROV1-R10 (top) and SKOV3 (bottom). Cells were concomitantly (A, E) or sequentially (B) exposed to 25 μM Pyridoclax and 5 μM ABT-737, and cellular effects were assessed either longitudinally (A, B, E) or after 24 h (C, D, F). [A, B, E] real time cellular activity assessed by impedancmetry (xCELLigence technology), after concomitant exposure (A, E) or sequential exposure (B; 24 h Pyridoclax, then ABT-737). [C]: Cellular morphology and DNA content histograms after a 24 h concomitant exposure. [D and F]: PARP and caspase 3 cleavage after a 24 h concomitant exposure.
# (§2) Compound-mediated cytotoxicity was monitored using Real-Time Cell Analyzer multi-plate (RTCA MP) Instrument, xCELLigence System (Roche Applied Science, Mannheim, Germany). This system monitors cellular events in real time measuring electrical impedance across interdigitated micro-electrodes integrated on the bottom of tissue culture E-plates View (Roche). […] Thus, this index reflects changes in cell viability as described by Ke et al. (2011, Methods Mol Biol 740, 33-43). […] Impedance was continuously measured until the end of the treatment. Standard deviations of well replicates were analyzed with the RTCA Software.
# [2] = test system: SKOV3 chemoresistant ovarian cancer cells; assay: as above; format: cell-based, human; settings: SKOV3, 25 μM Pyridoclax + 5 μM ABT-737
# Experimental: as §1, §2
# [3] = test system: IGROV1-R10 ovarian cancer cells; assay: Cellular morphology / cell detachment, molecule alone or with Bcl-xL targeting siRNA; format: cell-based
# Experimental: (§3) Exponentially growing cells were transfected by siRNA as described below, and after 48 h, cells were continuously exposed to (Het)aromatic oligosystems (10, 25 or 50 μM) dissolved in DMSO (<0.1% of total volume) for 4 to 24 supplementary hours.
# (§4) Cells were seeded in 25 cm^2 flasks the day before to reach 30-50% confluency at the time of transfection. The transfection INTERFERin™ reagent (Polyplus Transfection, Strasbourg. France) was added to siRNA diluted in Opti-MEM® reduced serum medium (Invitrogen, Cergy-Pontoise, France) and complexes formation was allowed to proceed for 15 min at RT before being applied to cells. The final siRNA concentration in the flasks was 20 nM.
# [4] = test system: IGROV1-R10 ovarian cancer cells; assay: DNA content histograms (sub-G1) by flow cytometry; format: cell-based
# Experimental: as §3
# as §4, with “The final siRNA concentration in the flasks was 20 nM.” left out
# (§5) Adherent and floating cells were pooled, washed with 1×PBS and centrifuged at 200 g for 5 min before staining by Annexin V, propidium iodide or both, as recommended by the manufacturer (Roche Diagnostic, Indianapolis, USA). Briefly, 100 μl of Annexin V—Flit or propidium iodide or both were added on the cells pellet (10^6 cells) and incubated 15 minutes at room temperature in obscurity. 500 μl of sample buffer was then added on the suspensions that were thereafter analyzed using a Gallios flow cytometer (Beckman Coulter, Roissy, France) and cell cycle distribution was determined using Kaluza acquisition software (Beckman Coulter).
# Mcl-1/Puma interaction = target: T1, Mcl-1/Puma interaction (Homo sapiens, UniProt Q07820); assay: BRET assay, Mcl-1/Puma interaction; format: cell-based; settings: BRET in Hela cells, 16 hours
# T1 construct: expressed in transfected cells; host or cells: HeLa cells
# Experimental: Hela cells were seeded on 6-well plates and transfected with 200 ng/well of plasmid pRLuc-Bax, pRLuc-Puma or pRLuc-Noxa coding for BRET donors and 1 µg/well of peYFP-Bcl-xL or peYFP-Mcl-1 coding for BRET acceptors (or with pCMV-Bcl-xL or pCMV-Mcl-1 for control). Twenty-four hours after transfection, cells were trypsinized and re-seeded into white 96 well plate flat bottom, incubated for another day, and then treated with drugs for 16 hours at 10 μM. Light emission at 485 nm and 530 nm was measured consecutively using the Mithras fluorescence-luminescence detector LB 940 (Berthold) after adding the luciferase substrate, coelenterazine H (Uptima) at a final concentration of 5 μM. BRET ratios were calculated as described [Terrillon et al. (2003) Mol Endocrinol 17, 677-691, Vo et al. (2012) Eur J Med Chem., 286-93].
# [5] = test system: IGROV1-R10 chemoresistant ovarian cancer cells; assay: Pyridoclax / ABT-737 association, apoptotic cell death; format: cell-based
# Experimental: as §1, §5
# Cells were rinsed with ice-cold PBS, suspended in a lysis buffer [RIPA:NaCl 150 mM, Tris (pH 8) 50 mM, Triton X100 1%, PMSF 4 mM, EDTA 5 mM, NaF 10 mM, NaPPi 10 mM, Na3OV4 1 mM, aprotinin 0.5 μl/ml and 4.6 ml ultra pure water] and incubated on ice for 30 minutes. Lysates were collected after centrifugation (13200 g, 10 min, 4° C.) and protein concentrations were determined using the Bradford assay (Bio-Rad, Hercules, USA). 20 μg of protein were separated by SDS-PAGE on a 4-12% gradient polyacrylamide gel (Invitrogen, Cergy-Pontoise, France) and transferred to Hybond-PVDF membranes (Amersham, Orsay, France). […]
# [6] = IGROV1-R10, Pyridoclax associated to siXL1
# T1 sequence (Q07820 whole entry): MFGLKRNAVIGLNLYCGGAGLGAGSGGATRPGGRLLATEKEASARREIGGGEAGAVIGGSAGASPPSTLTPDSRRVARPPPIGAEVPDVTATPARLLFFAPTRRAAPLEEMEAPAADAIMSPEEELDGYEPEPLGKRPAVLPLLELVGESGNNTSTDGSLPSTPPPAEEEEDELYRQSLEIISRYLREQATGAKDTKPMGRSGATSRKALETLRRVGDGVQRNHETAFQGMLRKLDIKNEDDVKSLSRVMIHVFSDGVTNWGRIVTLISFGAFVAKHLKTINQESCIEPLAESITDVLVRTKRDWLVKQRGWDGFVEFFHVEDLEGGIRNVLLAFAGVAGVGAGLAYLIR
smiles,measurement,setting,value
"Cc1cc(-c2ncc(-c3cccnc3)cc2/C=C/c2ccccc2)cnc1-c1cccnc1 [Pyridoclax, 5,6′-di(pyridin-3-yl)-5′-methyl-3-((E)-styryl)-2,3′-bipyridine]",cellular activity (impedancemetry),[1],drastically decreased
same,cellular activity (impedancemetry),[2],drastically decreased
same,effects in response to 10 μM,"[3]; IGROV1-R10, Pyridoclax 10 μM associated to siXL1 (data not shown)",also observed in a lower extend
same,Cell detachment,[3]; [6],strong cell detachment
same,concentration at which effects are optimal,[3]; [6],25 µM
same,"cell death, agent on its own","[3]; IGROV1-R10, single agent",neither Pyridoclax nor the Bcl-xL targeting siRNA (siXL1) induced massive cell death on their own
same,sub-G1 Peak on the DNA content histogram,"[4]; IGROV1-R10, 10 nM siXL1 48 h then 25 μM Pyridoclax 24 h",over 50%
same,time after beginning of exposure at which apoptosis was observed,"[4]; IGROV1-R10, siXL1 + Pyridoclax",2 to 4 h
same,events in sub-G1 fraction,"[4]; IGROV1-R10, siXL1 + Pyridoclax, after 4 h exposure",37%
same,Sub-G1 (%),[4]; Molecule + Bcl-xL targeting siRNA,53.6%
same,effect on Mcl-1/Puma interaction,Mcl-1/Puma interaction; 10 μM,able to disrupt
same,inhibition at 10 µM,Mcl-1/Puma interaction,~50%
same,"cell death, combination with ABT-737","[5]; IGROV1-R10, 25 μM Pyridoclax + 5 μM ABT-737",massive apoptotic cell death
same,cell death as single agent,"[5]; IGROV1-R10, single agent",neither ABT-737 nor Pyridoclax induced cell death as single agents

# — patent US10307410B2, “Mcl-1 modulating compounds for cancer treatment” (CENTRE REGIONAL DE LUTTE CONTRE LE CANCER FRANCOIS BACLESSE, priority 2014, dated 2019)
